How the values were obtained:
[1] = Inhibition of mouse PDL1 in mouse splenocytes assessed as rescue of splenocyte effector function
[2] = Inhibition of mouse PDL2 in mouse splenocytes assessed as rescue of splenocyte effector function

C[C@@H](O)[C@H](NC(=O)N[C@@H](CC(N)=O)C(=O)NNC(=O)[C@@H](N)CO)C(=O)O
EC50 [1]: 30 nM | EC50 [2]: 40 nM
